Source: patent publication US20210147802A1, “METHODS OF GENERATING ENUCLEATED ERYTHROID CELLS USING TAURINE OR HYPOTAURINE” (Rubius Therapeutics, Inc., priority 2019, published 2021)

Key:
[1] = test system: erythroid progenitor cells; test: Enucleated erythroid cell density over time in cultures of erythroid progenitor cells (FIG. 2); type: cell-based; conditions: culture medium including the substance during maturation; compared to methods without it
[2] = test system: erythroid cells generated from human CD34+ hematopoietic stem cells; test: Three-stage erythroid culture; maturation-phase (third) medium supplemented; FACS-based cell counting
Experimental: The effect of hypotaurine alone or in combination with myo-inositol on erythroid progenitor cell cultures was examined. Human CD34^+ hematopoietic stem cells (HSCs) were cultured in a three-stage process to generate enucleated erythroid cells. In the first stage, the CD34^+ HSCs were expanded in a T-flask in a first culture medium containing IMDM supplemented recombinant human insulin, recombinant human transferrin, recombinant human SCF, recombinant IL-3, recombinant Flt-3 ligand, and recombinant human IL-3. Subsequently, cells were transduced with a lentiviral vector encoding phenylalanine ammonia lyase. After transduction, cells were cultured in a 50 L bioreactor culture vessel containing a second culture medium containing IMDM, supplemented with recombinant human erythropoietin, recombinant human SCF, recombinant human IL3, recombinant human insulin, dexamethasone, and recombinant human transferrin. For the third stage of the process (maturation phase), an aliquot of cells was seeded into 24 well plate containing a third culture medium containing IMDM supplemented with recombinant human EPO, recombinant human SCF, recombinant human insulin, recombinant transferrin, human AB serum, and human plasma.
[…] Of note, the first, second and third culture media included a basal media (i.e., IMDM) including 0.0072 g/L of myo-inositol. Periodic sampling and cell counting was performed during the third stage using a fluorescence-activated cell sorting-based cell counter.

[3] = test system: erythroid progenitor cells; test: Total cell density over time in cultures of erythroid progenitor cells (FIG. 1); type: cell-based; conditions: culture medium including the substance during maturation; compared to methods without it
[4] = third culture media supplemented with taurine, compared to control culture conditions (data not shown)

NCCS(=O)O [hypotaurine]
number of enucleated erythroid cells [1]: increased | rate of enucleation [1]: increased | total cell density of erythroid cells ([2]; 1.0 g/L hypotaurine in third culture medium, 24 well plate, compared to control culture conditions (FIG. 1)): significantly increase | enucleated erythroid cell density ([2]; 1.0 g/L hypotaurine in third culture medium, 24 well plate, compared to control culture conditions (FIG. 2)): significantly increase | cell proliferation [3]: increased

NCCS(=O)(=O)O [taurine]
number of enucleated erythroid cells [1]: increased | rate of enucleation [1]: increased | enucleated erythroid cell density [2, 4]: significant increase | total cell density of erythroid cells [2, 4]: significant increase | cell proliferation [3]: increased
